# Patent US9119881B2, “Method of synergistically enhancing the therapeutic efficacy and safety of medication through a combination therapy” (priority 2010, dated 2015)
# Marks after values point to notes of the source that are not given here. Where no end group is shown, it is not given here. The star is where a group is joined. Myristoyl = CCCCCCCCCCCCCC(=O)*
# Legend:
# PPAR γ = target: T1, PPAR γ (Mus musculus, UniProt P37238); experiment: PPAR γ reporter activity assay in 3T3-L1 preadipocytes; format: cell-based; conditions: 6 hrs, 2′5′-dideoxyadenosine 10 μM, PKAi 30 μM; for ABA-induced PPAR γ activation, effect of inhibitor: ABA 10 μM; for Ros-induced PPAR γ activation, effect of inhibitor: Ros 1 μM
# T1 construct: expressed in transfected cells; host or cells: 3T3-L1 pre-adipocytes
# T1 sequence (P37238 31-505 limits assumed): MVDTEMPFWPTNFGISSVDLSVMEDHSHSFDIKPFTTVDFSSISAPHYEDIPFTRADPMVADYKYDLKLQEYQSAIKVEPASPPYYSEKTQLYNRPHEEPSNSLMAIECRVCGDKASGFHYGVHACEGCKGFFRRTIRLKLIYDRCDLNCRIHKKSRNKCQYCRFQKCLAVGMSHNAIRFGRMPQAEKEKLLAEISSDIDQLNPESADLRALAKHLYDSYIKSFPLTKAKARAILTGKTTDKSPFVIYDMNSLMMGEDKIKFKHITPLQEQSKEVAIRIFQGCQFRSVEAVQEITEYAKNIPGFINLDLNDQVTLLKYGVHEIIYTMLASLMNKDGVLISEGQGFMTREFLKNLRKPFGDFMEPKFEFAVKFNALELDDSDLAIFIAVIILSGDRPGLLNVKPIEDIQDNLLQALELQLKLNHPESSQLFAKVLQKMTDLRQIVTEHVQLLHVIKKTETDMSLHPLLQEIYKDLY
# Procedure: For 3T3-L1 preadipocytes cells were treated for 6-h with vehicle (DMSO) or Ros (1 μM) with ABA (10 μM), the cAMP-inhibitor 2′5′ dideoxyadenosine (dideoxy, 10 μM), or 14-22 myristolated PKA inhibitor fragment (PKAi, 30 μM). […] Luciferase activity was normalized to pRL activity in the cell extracts and relative luciferase activity was calculated a ratio of the activity in the treatment wells to control wells. Data are represented as mean±standard error.
# A pCMX.PPAR γ expression plasmid and a pTKPPRE3x luciferase reporter plasmid driven by the PPRE-containing Acyl-CoA oxidase promoter (kindly provided by Dr. R M. Evans, The Salk Institute, San Diego, Calif.) were purified using Qiagen's Maxi kit (Valencia, Calif.). […] Cells were co-transfected in the […] with 1.5 μg plasmid DNA and 25 ng of pRL reporter control using F-2 transfection reagents (Targeting Systems, Santee, Calif.) according to the manufacturer's protocol. […] Cells were then treated in replicates of 8 with vehicle (DMSO), rosiglitazone (1 or 10 μM; Cayman Chemicals, Arm Arbor, Mich.), or ABA (10 μM; Sigma) with and without 2′5′ dideoxyadenosine (10 μM; Sigma) and 14-22 myristolated PKA inhibitor fragment (PKAi, 30 μM; Sigma). […] Luciferase activity, normalized to pRL activity in the cell extracts was determined by using the Dual Luciferase II reporter assay system (Promega, Madison, Wis.) using a Modulus 96-well luminometer (Turner Biosystems, Sunnyvale, Calif.). All values were normalized to control wells to calculate relative luciferase activity.
# [1] = Dietary ABA and rosiglitazone in obese db/db mice: body and organ weights; format: in vivo; conditions: for Final body weight / Ab. WAT % Body Weight / Liver % Body Weight / Sc. WAT % Body Weight: with or without ABA 100 mg/kg diet; for Final body weight: 60 days
# Procedure: Twelve-fifteen week-old BKS.Cg-+Lepr^db/+Lepr^db/OlaHsd (db/db) mice were housed at the animal facilities at Virginia Polytechnic Institute and State University in a room maintained at 75° F., with a 12:12 h light-dark cycle starting from 6:00 AM. All experimental procedures were approved by the Institutional Animal Care and Use Committee of Virginia Polytechnic Institute and State University and met or exceeded requirements of the Public Health Service, National Institutes of Health and the Animal Welfare Act. […] Louis, Mo.) for 60 days. Mice were weighed and fasting (12 h) blood glucose levels were taken weekly. Blood glucose levels were assessed with an ACCU-CHEK® Glucometer (Roche, Indianapolis, Ind.). […] On day 60 mice were sacrificed by CO2 narcosis with secondary thoracotomy. Abdominal WAT, inguinal subcutaneous WAT, and liver were then excised and weighed. Abdominal and subcutaneous WAT were then digested and fractionated.
# [2] = as stated in U.S. Pat. No. 6,515,132; cited from earlier work
# [3] = db/db mice, Roshi diet (70 mg/kg diet), day 60
# [4] = db/db mice, Roslo diet (10 mg/kg diet), day 60
compound,measurement,setting,value
C[C@H]1O[C@@H](n2cnc3c(N)ncnc32)C[C@@H]1O [2′5′-dideoxyadenosine],"ABA-induced PPAR γ activation, effect of inhibitor",PPAR γ,prevented
same,"Ros-induced PPAR γ activation, effect of inhibitor",PPAR γ,no effect
CN(CCOc1ccc(CC2SC(=O)NC2=O)cc1)c1ccccn1 (stereo not shown) [rosiglitazone],edema in the interscapular region,[1]; db/db mice fed Ros^hi (70 mg/kg diet),significant edema
same,Final body weight,"[1]; db/db mice, Roshi diet (70 mg/kg diet)",64.4 ± 2.4^d g
same,Ab. WAT % Body Weight,[1]; [3],4.6 ± 0.61^a % Body Weight
same,Liver % Body Weight,[1]; [3],6.7 ± 2.3^a % Body Weight
same,Sc. WAT % Body Weight,[1]; [3],3.2 ± 0.43 % Body Weight
same,Final body weight,"[1]; db/db mice, Roslo diet (10 mg/kg diet)",56.4 ± 2.4^bc g
same,Ab. WAT % Body Weight,[1]; [4],6.7 ± 0.61^bc % Body Weight
same,Liver % Body Weight,[1]; [4],9.2 ± 0.51^b % Body Weight
same,Sc. WAT % Body Weight,[1]; [4],2.4 ± 0.43 % Body Weight
same,liver weights (in words),"[1]; db/db mice, day 60, low dose Ros, ABA 100 mg/kg diet",significantly increased
same,body weights of the mice (in words),"[1]; db/db mice, both low- and high-dose rosiglitazone, 60-day dietary intervention",significantly increased
O=C1NC(=O)C(Cc2ccc3c(c2)CC[C@H](Cc2ccccc2)O3)S1 (stereo partly shown) [Englitazone],current minimum effective drug dose,[2],200 μmol/kg diet
"PKAi: 14-22 myristoylated PKA inhibitor fragment (Myristoyl-SGRTGRRNA; UniProt P61925 14-22, looked up, fragment)","ABA-induced PPAR γ activation, effect of inhibitor",PPAR γ,prevented
same,"Ros-induced PPAR γ activation, effect of inhibitor",PPAR γ,no effect
